Test results: the supplement of paper PMC10307832

Key:
Test in all cases: relative viability (nuclei count vs DMSO), 5 days (fraction); higher = more cells survive
NCI-H460 = tested on: NCI-H460
Outline: (§1)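 Lung cancer cell lines in 1536-well plates were dosed by pin tool the day after seeding, either with one drug alone or with a fixed anchor-drug dose plus five library-drug doses (not always all listed) in √10 steps. After 5 days, cells were fixed and their nuclei stained in one step (final 0.05% Triton X-100, 1% formaldehyde, 1 ug/ml Hoechst), then counted on 4× images. Relative viability is the nuclei count in treated wells divided by that in vehicle wells. Values are medians of duplicate plates.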

NCI-H1650 = tested on: NCI-H1650
Outline: as §1

NCI-H2087 = tested on: NCI-H2087
Outline: as §1

NCI-H596 = tested on: NCI-H596
Outline: as §1

PC-3 [JPC-3] = tested on: PC-3 [JPC-3]
Outline: as §1

NCI-H1915 = tested on: NCI-H1915
Outline: as §1

NCI-H1944 = tested on: NCI-H1944
Outline: as §1

NCI-H1792 = tested on: NCI-H1792
Outline: as §1

CAL-12T = tested on: CAL-12T
Outline: as §1

NCI-H2023 = tested on: NCI-H2023
Outline: as §1

ABC-1 = tested on: ABC-1
Outline: as §1

201T = tested on: 201T
Outline: as §1

NCI-H520 = tested on: NCI-H520
Outline: as §1

LCLC-97TM1 = tested on: LCLC-97TM1
Outline: as §1

A-427 = tested on: A-427
Outline: as §1

NCI-H441 = tested on: NCI-H441
Outline: as §1

NCI-H661 = tested on: NCI-H661
Outline: as §1

LC-2-ad = tested on: LC-2-ad
Outline: as §1

NCI-H650 = tested on: NCI-H650
Outline: as §1

H3255 = tested on: H3255
Outline: as §1

NCI-H1651 = tested on: NCI-H1651
Outline: as §1

NCI-H727 = tested on: NCI-H727
Outline: as §1

BEN = tested on: BEN
Outline: as §1

Oc1nc(-c2ccc(C(F)(F)F)cc2)nc2c1CSCC2 [XAV939] + C[C@@H](Oc1cc(-c2cnn(C3CCNCC3)c2)cnc1N)c1c(Cl)ccc(F)c1Cl [Crizotinib] (partner 1 µM)
relative viability (NCI-H460; first compound 0.08 µM): 1.44 | relative viability (NCI-H460; first compound 0.253 µM): 0.879 | relative viability (NCI-H460; first compound 0.8 µM): 0.816 | relative viability (NCI-H460; first compound 2.53 µM): 0.874 | relative viability (NCI-H1650; first compound 0.08 µM): 1.1 | relative viability (NCI-H1650; first compound 0.253 µM): 0.699 | relative viability (NCI-H1650; first compound 0.8 µM): 0.948 | relative viability (NCI-H1650; first compound 2.53 µM): 0.729 | relative viability (NCI-H2087; first compound 0.08 µM): 0.879 | relative viability (NCI-H2087; first compound 0.253 µM): 0.998 | relative viability (NCI-H2087; first compound 0.8 µM): 0.715 | relative viability (NCI-H2087; first compound 2.53 µM): 0.797 | relative viability (NCI-H596; first compound 0.08 µM): 1.12 | relative viability (NCI-H596; first compound 0.253 µM): 0.955 | relative viability (NCI-H596; first compound 0.8 µM): 1.06 | relative viability (NCI-H596; first compound 2.53 µM): 0.93 | relative viability (PC-3 [JPC-3]; first compound 0.08 µM): 0.936 | relative viability (PC-3 [JPC-3]; first compound 0.253 µM): 0.903 | relative viability (PC-3 [JPC-3]; first compound 0.8 µM): 0.966 | relative viability (PC-3 [JPC-3]; first compound 2.53 µM): 0.92 | relative viability (NCI-H1915; first compound 0.08 µM): 0.949 | relative viability (NCI-H1915; first compound 0.253 µM): 0.899 | relative viability (NCI-H1915; first compound 0.8 µM): 0.891 | relative viability (NCI-H1915; first compound 2.53 µM): 0.86 | relative viability (NCI-H1944; first compound 0.08 µM): 1.32 | relative viability (NCI-H1944; first compound 0.253 µM): 1.08 | relative viability (NCI-H1944; first compound 0.8 µM): 1.03 | relative viability (NCI-H1944; first compound 2.53 µM): 0.959 | relative viability (NCI-H1792; first compound 0.08 µM): 0.994 | relative viability (NCI-H1792; first compound 0.253 µM): 0.896 | relative viability (NCI-H1792; first compound 0.8 µM): 0.977 | relative viability (NCI-H1792; first compound 2.53 µM): 0.902 | relative viability (CAL-12T; first compound 0.08 µM): 0.687 | relative viability (CAL-12T; first compound 0.253 µM): 0.449 | relative viability (CAL-12T; first compound 0.8 µM): 0.419 | relative viability (CAL-12T; first compound 2.53 µM): 0.56 | relative viability (NCI-H2023; first compound 0.08 µM): 0.598 | relative viability (NCI-H2023; first compound 0.253 µM): 0.581 | relative viability (NCI-H2023; first compound 0.8 µM): 0.468 | relative viability (NCI-H2023; first compound 2.53 µM): 0.43 | relative viability (ABC-1; first compound 0.08 µM): 1.32 | relative viability (ABC-1; first compound 0.253 µM): 0.905 | relative viability (ABC-1; first compound 0.8 µM): 0.908 | relative viability (ABC-1; first compound 2.53 µM): 0.603 | relative viability (201T; first compound 0.08 µM): 0.995 | relative viability (201T; first compound 0.253 µM): 1.03 | relative viability (201T; first compound 0.8 µM): 0.94 | relative viability (201T; first compound 2.53 µM): 0.866 | relative viability (NCI-H520; first compound 0.08 µM): 0.778 | relative viability (NCI-H520; first compound 0.253 µM): 0.665 | relative viability (NCI-H520; first compound 0.8 µM): 0.668 | relative viability (NCI-H520; first compound 2.53 µM): 0.68 | relative viability (LCLC-97TM1; first compound 0.08 µM): 0.488 | relative viability (LCLC-97TM1; first compound 0.253 µM): 0.344 | relative viability (LCLC-97TM1; first compound 0.8 µM): 0.361 | relative viability (LCLC-97TM1; first compound 2.53 µM): 0.305 | relative viability (A-427; first compound 0.08 µM): 0.918 | relative viability (A-427; first compound 0.253 µM): 0.909 | relative viability (A-427; first compound 0.8 µM): 0.794 | relative viability (A-427; first compound 2.53 µM): 0.729 | relative viability (NCI-H441; first compound 0.08 µM): 0.986 | relative viability (NCI-H441; first compound 0.253 µM): 0.724 | relative viability (NCI-H441; first compound 0.8 µM): 0.66 | relative viability (NCI-H441; first compound 2.53 µM): 0.779 | relative viability (NCI-H661; first compound 0.08 µM): 0.922 | relative viability (NCI-H661; first compound 0.253 µM): 0.961 | relative viability (NCI-H661; first compound 0.8 µM): 0.953 | relative viability (NCI-H661; first compound 2.53 µM): 0.969 | relative viability (LC-2-ad; first compound 0.08 µM): 0.468 | relative viability (LC-2-ad; first compound 0.253 µM): 0.382 | relative viability (LC-2-ad; first compound 0.8 µM): 0.435 | relative viability (LC-2-ad; first compound 2.53 µM): 0.489 | relative viability (NCI-H650; first compound 0.08 µM): 1.01 | relative viability (NCI-H650; first compound 0.253 µM): 0.945 | relative viability (NCI-H650; first compound 0.8 µM): 0.736 | relative viability (NCI-H650; first compound 2.53 µM): 0.545 | relative viability (H3255; first compound 0.08 µM): 0.942 | relative viability (H3255; first compound 0.253 µM): 0.873 | relative viability (H3255; first compound 0.8 µM): 0.725 | relative viability (H3255; first compound 2.53 µM): 0.7 | relative viability (NCI-H1651; first compound 0.08 µM): 0.988 | relative viability (NCI-H1651; first compound 0.253 µM): 0.798 | relative viability (NCI-H1651; first compound 0.8 µM): 0.857 | relative viability (NCI-H1651; first compound 2.53 µM): 0.856 | relative viability (NCI-H727; first compound 0.08 µM): 0.812 | relative viability (NCI-H727; first compound 0.253 µM): 0.566 | relative viability (NCI-H727; first compound 0.8 µM): 0.722 | relative viability (NCI-H727; first compound 2.53 µM): 0.765 | relative viability (BEN; first compound 0.08 µM): 0.868 | relative viability (BEN; first compound 0.253 µM): 0.788 | relative viability (BEN; first compound 0.8 µM): 0.978
